Holding throughout (type): functional
The test system of assay [1] is B16. Briefly: Antiproliferative activity against mouse B16 cells assessed as cell proliferation level at 730 uM after 72 hrs by MTT assay relative to control.
Assay [2] concerns B16. Briefly: Inhibition of melanogenesis in mouse B16 cells assessed as intracellular melanogenesis activity at 730 uM after 72 hrs relative to control. Also noted: scale not given: the % may be the effect or the level left.
For assay [3], the system named is B16. Briefly: Inhibition of melanogenesis in mouse B16 cells assessed as extracellular melanogenesis activity at 730 uM after 72 hrs relative to control. Also noted: scale not given: the % may be the effect or the level left.
Assay [4] concerns B16. Briefly: Inhibition of melanogenesis in mouse B16 cells assessed as extracellular melanogenesis activity at 50 uM after 72 hrs relative to control. Also noted: scale not given: the % may be the effect or the level left.
Assay [5] relates to B16. Briefly: Inhibition of melanogenesis in mouse B16 cells assessed as extracellular melanogenesis activity at 6.25 uM after 72 hrs relative to control. Also noted: scale not given: the % may be the effect or the level left.
The test system of assay [6] is B16. Briefly: Inhibition of melanogenesis in mouse B16 cells assessed as intracellular melanogenesis activity at 6.25 uM after 72 hrs relative to control. Also noted: scale not given: the % may be the effect or the level left.
Assay [7] deals with B16. Briefly: Antiproliferative activity against mouse B16 cells assessed as cell proliferation level at 6.25 uM after 72 hrs by MTT assay relative to control. On the technique in general: Tetrazolium assays rely on reduction of a dye to a coloured formazan, in cell work by metabolically active cells.
Assay [8] has as its system B16. Briefly: Inhibition of melanogenesis in mouse B16 cells assessed as extracellular melanogenesis activity at 12.5 uM after 72 hrs relative to control. Also noted: scale not given: the % may be the effect or the level left.
For assay [9], the system named is B16. Briefly: Antiproliferative activity against mouse B16 cells assessed as cell proliferation level at 50 uM after 72 hrs by MTT assay relative to control.
For assay [10], the system named is B16. Briefly: Inhibition of melanogenesis in mouse B16 cells assessed as intracellular melanogenesis activity at 50 uM after 72 hrs relative to control. Also noted: scale not given: the % may be the effect or the level left.
The test system of assay [11] is B16. Briefly: Antiproliferative activity against mouse B16 cells assessed as cell proliferation level at 25 uM after 72 hrs by MTT assay relative to control.
For assay [12], the system named is B16. Briefly: Inhibition of melanogenesis in mouse B16 cells assessed as intracellular melanogenesis activity at 25 uM after 72 hrs relative to control. Set-up: scale not given: the % may be the effect or the level left.
Assay [13] deals with B16. Briefly: Inhibition of melanogenesis in mouse B16 cells assessed as extracellular melanogenesis activity at 25 uM after 72 hrs relative to control. Set-up: scale not given: the % may be the effect or the level left.
The test system of assay [14] is B16. Briefly: Inhibition of melanogenesis in mouse B16 cells assessed as intracellular melanogenesis activity at 12.5 uM after 72 hrs relative to control. Set-up: scale not given: the % may be the effect or the level left.
Assay [15] relates to B16. Briefly: Antiproliferative activity against mouse B16 cells assessed as cell proliferation level at 12.5 uM after 72 hrs by MTT assay relative to control.

Consider `OC[C@H]1O[C@@H](Oc2ccc(O)cc2)[C@H](O)[C@@H](O)[C@@H]1O` [ARBUTIN], for which the Activity with B16 [1] is listed as 105%; in the assay on B16 [2], 89%; with B16 [3] it was 45%.
`O=c1cc(-c2ccc(O)c(O)c2)oc2cc(O)cc(O)c12` [LUTEOLIN]: the Activity with B16 [4] amounted to 16%; with B16 [5], 114%; with B16 [6], 122%; with B16 [7] it was 106%; in the assay with B16 [8] it was 109%; with B16 [9] it was 34%. The Activity is recorded as 55% with B16 [10]; 68% in the assay on B16 [11]; 66% in the assay with B16 [12]; 15% with B16 [13]; 118% in the assay on B16 [14]; 110% in the assay on B16 [15].
For the compound `COc1cc(O)c2c(=O)cc(-c3ccc(O)c(O)c3)oc2c1`, the Activity with B16 [4] turned out to be 16%; with B16 [5], 107%; in the assay on B16 [6], 108%; in the assay on B16 [7] it was 98%; in the assay on B16 [8], 51%; in the assay on B16 [9], 41%. Further, the Activity with B16 [10] is 50%; in the assay with B16 [11] it was 55%; in the assay with B16 [12], 50%; with B16 [13], 14%; with B16 [14], 87%; in the assay with B16 [15], 85%.

(Values after ChEMBL document CHEMBL4118264, “Selective synthesis of 7-O-substituted luteolin derivatives and their melanonenesis and proliferation inhibitory activity in B16 melanoma cells” (2018).)
